According to patent US6800638B2, “Tetrahydropyridine derivatives, their preparation and their use as cell proliferation inhibitors” (Hoffman-La Roche Inc., priority 2000, dated 2004):

Tested on: HDAC
Test: HDAC inhibition assay with aminocoumarin derivative of omega-acetylated lysine as substrate
Assay type: biochemical
Details: compound concentration 10 nM; protocol of Hoffmann et al. 1999
Description: To determine the HDAC inhibitory properties of the compounds of the invention an assay was performed using an aminocoumarin derivative of an omega-acetylated lysine as substrate for the enzyme. This assay has been described in detail by Hoffmann, K., et al., Nucleic Acids Res. 27 (1999) 2057-2058. Using the protocol described therein, the inhibitory effect of representative compounds was determined at a concentration of 10 nM.

SMILES: O=C(CCCCCCCN1CCc2ccccc2C1)NO [Example 1, 8-(3,4-Dihydro-1H-isoquinolin-2-yl)-octanoic acid hydroxyamide]
- Inhibitory effect at 10 nM in %: 54%

SMILES: CCOc1cc2c(cc1OCC)CN(CCCCCCCC(=O)NO)CC2 [Example 5, 8-(6,7-Diethoxy-3,4-dihydro-1H-isoquinolin-2-yl)-octanoic acid hydroxyamide]
- Inhibitory effect at 10 nM in %: 26%

SMILES: COc1cc2c(cc1OC)C(c1ccccc1)N(CCCCCCCC(=O)NO)CC2 (stereo not shown) [Example 6, 8-(6,7-dimethoxy-1-phenyl-3,4-dihydro-1H-isoquinolin-2-yl)-octanoic acid hydroxyamide]
- Inhibitory effect at 10 nM in %: 26%

SMILES: O=C(CCCCCCCN1CCc2c([nH]c3ccccc23)C1)NO [Example 7, 8-(1,3,4,9-tetrahydro-β-carbolin-2-yl)-octanoic acid hydroxyamide]
- Inhibitory effect at 10 nM in %: 26%
